One test concerns the target PAK1 (Homo sapiens, UniProt Q13153). The test can be described thus: Z'Lyte fluorescence-based (FRET) kinase assay, PAK1. Format: biochemical. The conditions noted are these: 50 μM ATP (Km apparent), 1 hr room temperature. On the procedure: (§1) A fluorescence-based assay format is used to determine IC50 values of test compounds in vitro. Purified PAK kinase is incubated with ATP, and a test compound at various concentrations and a substrate peptide containing two fluorophores. In a second step, the reaction mix is incubated with a site-specific protease that cleaves non-phosphorylated but not phosphorylated substrate peptide, disrupting the FRET signal generated by the two fluorophores in the cleaved peptide (Z'Lyte™ Kinase assay platform; Life Technologies).
(§2) Reagents: 50 mM HEPES, pH 7.5; 0.01% BRIJ-35; 10 mM MgCl2; 1 mM EGTA, 2 uM substrate peptide Ser/Thr20 (proprietary Life Technologies Sequence), PAK enzyme [2.42-30.8 ng for PAK1, 0.29-6 ng for PAK2, 1.5-20 ng for PAK3 and 0.1-0.86 ng for PAK4; actual enzyme amounts depend on lot activity of the enzyme preparation]
(§3) Test compounds are dissolved in DMSO at various concentrations; the final DMSO concentration in the assay reaction is 1%.
(§4) ATP concentration at Km apparent is used in the assay [50 ? M ATP for PAK1 assay, 75 ? […]
(§5) Plates are analyzed in a standard fluorescence plate reader (Tecan or equivalent) using an excitation wavelength of 400 nm and emission wavelengths of 445 nm and 520 nm Inhibition of kinase reaction is determined by emission ratio=emission@ 445 nm/emission@ 520 nm

The target of a further test is PAK2 (Homo sapiens, UniProt Q13177). The test is described as follows: Z'Lyte fluorescence-based (FRET) kinase assay, PAK2. Format: biochemical. To be noted: 75 μM ATP (Km apparent), 1 hr room temperature. On the procedure:
as §1, §2, §3, §4, §5

The next test addresses PAK3 (Homo sapiens, UniProt O75914). The test is described as follows: Z'Lyte fluorescence-based (FRET) kinase assay, PAK3. Format: biochemical. To be noted: 100 μM ATP (Km apparent), 1 hr room temperature. On the procedure: as §1, §2, §3, §4, §5
A further test concerns the target PAK4 (Homo sapiens, UniProt O96013). The test can be described thus: Z'Lyte fluorescence-based (FRET) kinase assay, PAK4. Format: biochemical. The conditions noted are these: 5 μM ATP (Km apparent), 1 hr room temperature. How it is done:
as §1, §2, §3, §4, §5

For test [1], the system named is C57/black 6 mice temporal cortex slices. The test is described as follows: Slice electrophysiology assay (LTP in cortical slices). To be noted: 1 μM compound; theta-burst stimulation protocol; temporal cortex slices of C57/black 6 mice. Format: cell-based. How it is done:
Materials: coronal cortical slices (400 μam) containing temporal cortex from 2- to 3-month-old C57-Black-6 mice male littermates (from Elevage Janvier, FRANCE) are prepared and allowed to recover in oxygenated (95% O2 and 5% CO2) warm (30° C.) artificial cerebrospinal fluid (ACSF) containing 124 mM NaCl, 5 mM KCl, 1.25 mM, NaH2PO4, 1 mM MgCl2, 2 mM CaCl2, 26 mM NaHCO3, and 10 mM dextrose.
Compound dilution: a 10 mM DMSO stock solution is prepared for each test compound and 100 μL aliquots are stored at −20° C. On the day of experiment an aliquot is thawed and vortexed for fresh solutions preparation. […]
LTP: a stimulus is applied every 30 s with an intensity settled at 40% of the maximal amplitude responses. […] Potentiation of synaptic transmission is then monitored for an additional 40 minutes period. […]
Compound evaluation: following a 10 minutes control recording period (to verify baseline stability), the compound is perfused for 20 minutes. Then, LTP is triggered and the fEPSP amplitude will be recorded for an additional 40 minutes period in the presence of compound.
Data analysis: fEPSP amplitudes are measured as the difference between the baseline (before stimulation) and the maximal peak amplitude. The fEPSP are normalized as a percent of the mean averaged amplitude recorded over a 10 min control period, before compound application. […]

Some results are limits rather than exact numbers.

Chain of PAK3 (O75914 whole entry): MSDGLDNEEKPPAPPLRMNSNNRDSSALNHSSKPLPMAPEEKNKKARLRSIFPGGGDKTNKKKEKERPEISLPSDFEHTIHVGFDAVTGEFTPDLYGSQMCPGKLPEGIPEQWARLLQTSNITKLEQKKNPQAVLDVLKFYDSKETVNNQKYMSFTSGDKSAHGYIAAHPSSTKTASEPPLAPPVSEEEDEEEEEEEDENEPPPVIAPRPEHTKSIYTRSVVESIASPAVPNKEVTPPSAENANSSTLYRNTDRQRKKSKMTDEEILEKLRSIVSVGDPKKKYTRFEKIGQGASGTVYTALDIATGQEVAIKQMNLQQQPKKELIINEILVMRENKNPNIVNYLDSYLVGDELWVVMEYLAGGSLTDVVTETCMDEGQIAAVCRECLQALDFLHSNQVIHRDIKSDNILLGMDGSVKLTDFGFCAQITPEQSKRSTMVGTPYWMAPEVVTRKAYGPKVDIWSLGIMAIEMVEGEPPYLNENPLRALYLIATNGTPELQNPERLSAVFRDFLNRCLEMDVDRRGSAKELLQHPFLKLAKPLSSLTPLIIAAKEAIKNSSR
Chain of PAK1 (Q13153 whole entry): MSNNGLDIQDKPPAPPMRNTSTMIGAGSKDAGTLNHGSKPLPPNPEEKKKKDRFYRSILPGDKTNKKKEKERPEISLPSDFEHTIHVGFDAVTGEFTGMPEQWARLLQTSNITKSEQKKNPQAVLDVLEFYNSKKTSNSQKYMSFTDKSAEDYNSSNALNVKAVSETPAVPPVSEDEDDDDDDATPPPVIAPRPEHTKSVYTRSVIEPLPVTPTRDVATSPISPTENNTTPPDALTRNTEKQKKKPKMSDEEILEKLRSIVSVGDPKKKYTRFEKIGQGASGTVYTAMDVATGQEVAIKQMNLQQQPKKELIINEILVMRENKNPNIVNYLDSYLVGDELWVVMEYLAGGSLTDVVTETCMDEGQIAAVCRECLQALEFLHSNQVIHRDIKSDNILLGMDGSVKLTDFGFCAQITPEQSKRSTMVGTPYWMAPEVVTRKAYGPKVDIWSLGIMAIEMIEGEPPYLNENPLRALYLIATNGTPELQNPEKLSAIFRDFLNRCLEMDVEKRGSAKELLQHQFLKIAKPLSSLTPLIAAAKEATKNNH
Chain of PAK2 (Q13177 whole entry): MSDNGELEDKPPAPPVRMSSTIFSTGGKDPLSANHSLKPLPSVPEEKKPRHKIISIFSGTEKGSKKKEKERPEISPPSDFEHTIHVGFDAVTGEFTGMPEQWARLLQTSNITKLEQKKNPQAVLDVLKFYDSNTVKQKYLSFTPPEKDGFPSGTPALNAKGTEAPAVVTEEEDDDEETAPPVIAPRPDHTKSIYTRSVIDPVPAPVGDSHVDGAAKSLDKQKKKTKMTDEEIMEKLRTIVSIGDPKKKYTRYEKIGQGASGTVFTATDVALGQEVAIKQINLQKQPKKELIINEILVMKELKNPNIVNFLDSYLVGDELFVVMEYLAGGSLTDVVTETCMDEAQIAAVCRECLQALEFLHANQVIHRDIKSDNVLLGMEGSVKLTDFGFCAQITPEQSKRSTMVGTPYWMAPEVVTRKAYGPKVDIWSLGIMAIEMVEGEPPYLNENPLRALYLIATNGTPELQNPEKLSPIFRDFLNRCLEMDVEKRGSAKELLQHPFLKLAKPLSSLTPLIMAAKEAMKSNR
Chain of PAK4 (O96013 whole entry): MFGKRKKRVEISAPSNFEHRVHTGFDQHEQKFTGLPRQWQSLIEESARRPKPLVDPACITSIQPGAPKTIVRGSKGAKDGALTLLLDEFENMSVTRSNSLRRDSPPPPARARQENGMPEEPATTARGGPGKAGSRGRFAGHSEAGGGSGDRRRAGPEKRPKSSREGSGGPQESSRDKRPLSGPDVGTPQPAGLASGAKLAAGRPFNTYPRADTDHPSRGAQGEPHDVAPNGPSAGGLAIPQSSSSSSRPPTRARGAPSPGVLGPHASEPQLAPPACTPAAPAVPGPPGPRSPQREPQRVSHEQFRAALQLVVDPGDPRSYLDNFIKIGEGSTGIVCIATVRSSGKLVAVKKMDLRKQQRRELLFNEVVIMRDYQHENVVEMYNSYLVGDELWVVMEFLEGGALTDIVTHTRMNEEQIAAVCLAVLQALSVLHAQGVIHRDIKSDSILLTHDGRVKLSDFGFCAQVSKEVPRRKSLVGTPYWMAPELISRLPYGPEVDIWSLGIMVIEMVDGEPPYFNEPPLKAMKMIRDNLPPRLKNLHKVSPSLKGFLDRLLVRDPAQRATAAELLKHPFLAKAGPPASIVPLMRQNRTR

`CCOc1ccccc1Cn1c(=O)ccc2cnc(Nc3ccc(N4CCN(C)CC4)cc3)nc21` [Compound 62]: the IC50 was < 1000 nM at PAK1, < 1000 nM on PAK2, < 1000 nM on PAK3 and 1000 to 10000 nM on PAK4.

As to `COc1cc(Nc2nccc(-c3ccc(NCCN)nc3)n2)cc(OC)c1OC` [Compound A], the “LTP compared to the baseline (fEPSP amplitude)” value in test [1] is “increased LTP”.

Take `CN1CCN(c2ccc(Nc3ncc4ccc(=O)n(C5CCCC5)c4n3)cc2)CC1` [Compound G, 8-cyclopentyl-2-(4-(4-methylpiperazin-1-yl)phenylamino)pyrido[2,3-d]pyrimidin-7(8H)-one]: in test [1], the “LTP compared to the baseline (fEPSP amplitude)” value was “increased LTP”.

The IC50 is the point on the concentration scale where inhibition reaches its midpoint.

These data come from patent US20130059824A1, “METHODS FOR TREATING MILD COGNITIVE IMPAIRMENT” (AFRAXis, Inc., priority 2009, published 2013).
